# Counter-ions that a name gives are not always drawn.
# What was measured:
# Type in all cases: physicochemical
# [1] = Solubility in water of amorphous versus crystalline E6070; settings: in words
# [2] = Hygroscopicity measurements (controlled-atmosphere microbalance, adsorption/desorption isotherm); settings: for hygroscopicity: general statement, in words
# Method: Hygroscopicity Measurements: Samples were exposed to various relative humidity (RH) conditions at 25° C. using an automated controlled-atmosphere microbalance, MB-300W (VTI Corporation, FL, USA). In this system, a sample was suspended in an isothermal chamber at 25° C., and the RH was regulated from 5% to 95% by adjusting the relative flow rates of dry (0% RH) and moist (100% RH) nitrogen. The weight of the sample was measured every 2 min with the microbalance. The weight stability criterion employed for the equilibrium was that the maximum weight change for each measurement was less than 0.2% (w/w).
# [3] = Physical stability of crystalline E6070 under stressed storage (XRD, TG-DTA)
# Method: Crystalline E6070 was placed on the sample platform of an X-ray powder diffractometer (RINT-2000, Rigaku, Japan) and analyzed under the conditions shown in Table 3.
# Thermal Analyses: Using a Rigaku Thermoflex TAS20 TG8101D (Rigaku, Tokyo, Japan) therogravimetric-differential thermal analyses (TG-DTA) were performed under the measurement conditions in Table 9. The temperature axis and the cell constant were calibrated with indium. The solid sample (1-5 mg) was accurately weighed into an open aluminum pan and then heated.
# The physical stability of crystalline E6070 was evaluated under the following two conditions: 60° C. for a month and 40° C./75% RH (open) for a month.
# [4] = 40° C./75% RH (open) for a month
smiles,measurement,setting,value
"Cc1nc2nc(N)cc(-c3cc4cc(CN(C)C5CCCCC5)ccc4[nH]3)c2[nH]1 [crystalline E6070, 1H-imidazo[4,5-b]pyridin-5-amine, 7-[5-[(cyclohexylmethylamino)-methyl]-1H-indol-2-yl]-2-methyl, sulfate (1:1), trihydrate]",solubility in water,[1],much less soluble in water
same,moisture uptake or loss on exposure to controlled humidities,[2]; from 0% to 93% RH at 25° C.,not found to take up or lose any moisture
same,hygroscopicity,"[2]; listed as Crystalline E6070, trihydrate",very low hygroscopicity
same,hygroscopicity,[2]; trihydrate,non-hygroscopic
same,TG-DTA thermogram after storage compared with initial,[3]; [4],same TG-DTA thermogram as the initial
same,change in XRD pattern after storage,[3]; [4],no change
same,TG-DTA thermogram after storage compared with initial,[3]; 60° C. for a month,same TG-DTA thermogram as the initial
same,change in XRD pattern after storage,[3]; 60° C. for a month,no change
same,physical stability in the solid state (conclusion),"[3]; both stressed conditions, one month",physically stable in the solid state
